# What was measured:
# Helicobacter pylori [1] = assay: H. pylori eradication by urea breath test (UBT) (Example 1); assay type: in vivo; settings: for Patients with UBT negative results: N = 10
# Description: 40 asymptomatic healthy patients that are positive for Helicobacter pylori infection were admitted to the trial. The 40 patients were randomly allocated to four groups at a ratio of 1:1:1:1.
# Different therapies were administered to the patients of each group according to the schedule below: • Group A: • Compound I capsule 200 mg/time (2 capsules, 100 mg/capsule), twice per day (BID); rabeprazole sodium enteric-coated tablet 20 mg/time (1 tablet, 20 mg/tablet), twice per day (BID) • Group B: • Compound I capsule 400 mg/time (4 capsules, 100 mg/capsule), twice per day (BID); rabeprazole sodium enteric-coated tablet 20 mg/time (1 tablet, 20 mg/tablet), twice per day (BID) • Group C: • Compound I capsule 600 mg/time (6 capsules, 100 mg/capsule), twice per day (BID); rabeprazole sodium enteric-coated tablet 20 mg/time (1 tablet, 20 mg/tablet), twice per day (BID) • Group D: • Compound I capsule 400 mg/time (4 capsules, 100 mg/capsule), twice per day (BID); rabeprazole sodium enteric-coated tablet 20 mg/time (1 tablet, 20 mg/tablet), twice per day (BID); amoxicillin capsule 1 g/time (4 capsules, 0.25 g/capsule), twice per day (BID)
# All patients were admitted to the clinical research center 1 day before dosing (D-1 Day), randomly allocated to respective groups and completed examinations for safety and baseline indicators. From day 1 to day 14, respective therapies/drugs were orally administered to the patients within 30 minutes after breakfast and dinner. On day 15, the last dose was administered orally to the patients within 30 minutes after breakfast. During the trial, each patient was dosed for 29 times in total. All patients left the hospital after completing a safety tolerance assessment on day 17 and returned to the clinical research center for urea breath test (UBT) follow-up examination between days 44 and 50 to evaluate the effect of Helicobacter pylori eradication.
# The initial analysis of eradication effect was based on the full data set, which is defined as all patients who were randomly selected and received at least one dose of the trial combination therapy.
# The eradication effects in each trial group were evaluated by UBT tests (negative or positive) conducted at the baseline time point, on day 8 after drug administration, day 16 after drug administration and day 44-50 of follow-up visit. Descriptive analysis was done using frequency (percentage), and comparison between groups was made. Fisher precision test was used to conduct between-group comparison analysis. As an aid to the analysis, the UBT values were listed as mean, standard deviation, median, minimum, maximum, and deviation from the baseline.
# Helicobacter pylori [2] = assay: H. pylori eradication by 14C UBT test (Example 2); assay type: in vivo; settings: BID × 14 day; for UBT results Negative / UBT results Positive: treatment group A: Compound I capsule 400 mg + rabeprazole sodium 20 mg + amoxicillin 1 g
# Description: In this example, 80 patients that are positive for Helicobacter pylori infection were admitted to the trial. The 80 patients were randomly allocated to 5 groups at a ratio of 2:2:1:1:2, including 4 treatment groups and 1 control group, and the dosage regimen is shown in Table 4.
# Patients were administered with the combination therapy daily according to the dosing regimen of the respective group from day 1 to day 14, and the last dose was administered in the morning of day 15. Pharmacokinetic blood samples were collected at the scheduled time point during the trial and patiented to a safety tolerance assessment and ^14C UBT test. All patients left the hospital after completing the safety tolerance assessment and PK blood collection on the 17th day (day 17), and returned to the research institution for follow-up visits from the 44th to 50th day (day 44-day 50). Follow-up of adverse events and laboratory abnormalities continued until the patients completely recovered or returned to baseline levels or stable states. Safety tolerance assessment, and ^14C UBT tests were performed to assess H. pylori eradication effects.
# The administration regimen was as follows: • Group A, Group B and Control Group: • Twice per day, the combination therapy was administered orally within 30 mins after breakfast and dinner, respectively, and the combination therapy was administered for 14 days consecutively. On day 15, the last administration was provided within 30 mins after breakfast. Each patient was administered for 29 times in total. • Group C and Group D: • Three times per day, and two administrations were separated by about 8 hours.
# Patients were examined with ^14C UBT test during the screening period (D-14˜D-2), baseline period (D-1), day 8 (D8), day 16 (D16) and days 44˜50 (D44˜D50). The test was done fasting before breakfast to determine the effects of H. pylori eradication in each group.
# • Full Analysis Set (FAS): refers to all randomized patients who have been administered with the combination therapy of the present disclosure at least once; • Modified Intentionality Analysis Set (mITT): refers to all randomized patients who underwent a ^14C UBT test on days 28 to 34 after the last administration; • Protocol-compliant Set (PP): refers to patients who have not experienced major protocol violations: randomized and treated with more than 80% (including 80%) of the total amount of the drug expected to be used in the investigation, and who were tested for ^14C UBT on days 28 to 34 after the last administration; • Safety Analysis Set (SS): refers to the patients who have entered the trial and have been administered the combination therapy of the present disclosure at least once; • Pharmacokinetic Concentration Analysis Dataset (PKCS): refers to all enrolled patients who have been administered with the combination therapy of the present disclosure and had at least one PK concentration observation; • Pharmacokinetic Parameter Analysis Dataset (PKPS): Refers to all enrolled patients who have been administered with the combination therapy of the present disclosure and had at least one PK parameter observation data point. Demographic Analysis: • Demographic analysis was based on Full Analysis Set (FAS). Descriptive statistical analysis of all demographics (age, sex, weight, height, BMI, ethnicity, etc.) and baseline characteristics, based on the measurement of the last valid data before the administration of the combination therapy of the present disclosure. Evaluation of the Eradication Effect of Helicobacter pylori: • The eradication effect analysis was performed with the Full Analysis Set (FAS), based on the results of four ^14C UBT tests (negative or positive) in group A, group B, group C, and control groups at baseline, on day 8, day 16, and follow-up days 44 to 50, and three ^14C UBT test results (negative or positive) in group D at baseline, on day 8, and follow-up days 37 to 43. […]
# [3] = Solubility of drug substance; assay type: physicochemical
# [4] = Day 8 after administration, FAS N = 20
# [5] = Day 8 after administration, mITT N = 19
# [6] = Day 16 after administration, FAS N = 20
# [7] = Day 16 after administration, mITT N = 19
# [8] = Follow up period (Day 44~Day 50), FAS N = 20
# [9] = Follow up period (Day 44~Day 50), mITT N = 19
compound,measurement,setting,value
"CO[C@H]1/C=C/O[C@@]2(C)Oc3c(C)c(O)c4c(c3C2=O)C2=NC3(CCN(CCn5c([N+](=O)[O-])cnc5C)CC3)NC2=C(NC(=O)/C(C)=C\C=C\[C@H](C)[C@H](O)[C@@H](C)[C@@H](O)[C@@H](C)[C@H](OC(C)=O)[C@@H]1C)C4=O [Compound I, 4-Deoxy-3,4-[2-spiro-[1-[2-(2-methyl-5-nitro-imidazol-1-yl)ethyl]-piperidin-4-yl]]-(1H)-imidazo-(2,5-dihydro)rifamycin]",Patients with UBT negative results,"Helicobacter pylori [1]; Day 8, Group A: Compound I 200 mg BID + rabeprazole sodium 20 mg BID",7 (70.0) n(%)
same,Patients with UBT negative results,"Helicobacter pylori [1]; Day 8, Group B: Compound I 400 mg BID + rabeprazole sodium 20 mg BID",10 (100.0) n(%)
same,Patients with UBT negative results,"Helicobacter pylori [1]; Day 8, Group C: Compound I 600 mg BID + rabeprazole sodium 20 mg BID",8 (80.0) n(%)
same,Patients with UBT negative results,"Helicobacter pylori [1]; Day 8, Group D: Compound I 400 mg BID + rabeprazole sodium 20 mg BID + amoxicillin 1 g BID",7 (70.0) n(%)
same,Patients with UBT negative results,"Helicobacter pylori [1]; Day 16, Group A: Compound I 200 mg BID + rabeprazole sodium 20 mg BID",3 (30.0) n(%)
same,Patients with UBT negative results,"Helicobacter pylori [1]; Day 16, Group B: Compound I 400 mg BID + rabeprazole sodium 20 mg BID",5 (50.0) n(%)
same,Patients with UBT negative results,"Helicobacter pylori [1]; Day 16, Group C: Compound I 600 mg BID + rabeprazole sodium 20 mg BID",6 (60.0) n(%)
same,Patients with UBT negative results,"Helicobacter pylori [1]; Day 16, Group D: Compound I 400 mg BID + rabeprazole sodium 20 mg BID + amoxicillin 1 g BID",10 (100.0) n(%)
same,Patients with UBT negative results,"Helicobacter pylori [1]; Follow up period (Day 44~50), Group A: Compound I 200 mg BID + rabeprazole sodium 20 mg BID",0 (0.0) n(%)
same,Patients with UBT negative results,"Helicobacter pylori [1]; Follow up period (Day 44~50), Group B: Compound I 400 mg BID + rabeprazole sodium 20 mg BID",3 (30.0) n(%)
same,Patients with UBT negative results,"Helicobacter pylori [1]; Follow up period (Day 44~50), Group C: Compound I 600 mg BID + rabeprazole sodium 20 mg BID",4 (40.0) n(%)
same,Patients with UBT negative results,"Helicobacter pylori [1]; Follow up period (Day 44~50), Group D: Compound I 400 mg BID + rabeprazole sodium 20 mg BID + amoxicillin 1 g BID",8 (80.0) n(%)
same,Eradication rate of H. pylori,"Helicobacter pylori [1]; Follow-up period (day 44 to day 50), Group D: Compound I 400 mg BID + rabeprazole sodium 20 mg BID + amoxicillin 1 g BID",80%
same,UBT results Negative,Helicobacter pylori [2]; [4],18 (90.0) n(%)
same,UBT results Positive,Helicobacter pylori [2]; [4],1 (5.0) n(%)
same,UBT results Negative,Helicobacter pylori [2]; [5],18 (94.7) n(%)
same,UBT results Positive,Helicobacter pylori [2]; [5],1 (5.3) n(%)
same,UBT results Negative,Helicobacter pylori [2]; [6],18 (90.0) n(%)
same,UBT results Positive,Helicobacter pylori [2]; [6],1 (5.0) n(%)
same,UBT results Negative,Helicobacter pylori [2]; [7],18 (94.7) n(%)
same,UBT results Positive,Helicobacter pylori [2]; [7],1 (5.3) n(%)
same,UBT results Negative,Helicobacter pylori [2]; [8],18 (90.0) n(%)
same,UBT results Positive,Helicobacter pylori [2]; [8],1 (5.0) n(%)
same,UBT results Negative,Helicobacter pylori [2]; [9],18 (94.7) n(%)
same,UBT results Positive,Helicobacter pylori [2]; [9],1 (5.3) n(%)
same,Eradication rate (mITT set) of Helicobacter pylori,"Helicobacter pylori [2]; treatment group A: combination therapy of compound I, rabeprazole sodium and amoxicillin",94.7%
same,Solubility of drug substance,[3],low solubility

# Source: patent US12005050B2, “Methods for preventing or treating H. pylori infection” (TENNOR THERAPEUTICS (SUZHOU) LIMITED, priority 2022, dated 2024)
